In US20140363530A1, “COMPOSITION COMPRISING THE EXTRACT OF PINE TREE LEAF OR THE COMPOUNDS ISOLATED THEREFROM FOR THE PREVENTION AND TREATMENT OF CANCER DISEASE BY INHIBITING HPV VIRUS AND THE USES THEREBY” (priority 2012, published 2014):
≈ marks a conversion by molar mass, not a printed value.

Legend:
[1] = system: MES-SA/DX5 (multidrug resistant carcinoma subline of MES-SA); experiment: SRB cytotoxicity test, MES-SA/DX5; format: cell-based, human; conditions: Homo sapiens, MES-SA/Dx5, 48 h, read-out: Cytotoxicity IC50, MES-SA/DX5
Protocol: (§1) To determine the cytotoxicity against human tumor cell line of the test samples prepared in Examples, following sulforhodamin B (SRB) bioassy test was performed according to the method disclosed in the literature (Skehan, P., et al., J. Natl. Cancer Inst., 82, 1990, 1107-1112).
(§2) Various human tumor cell lines, i.e., A-549 (human adenocarcinoma of lung, NCI), SK-OV-3 (human ovarian tumor, NCI), SK-MEL-2 (human malignant melanoma, NCI), HCT15 (human colon adenocarcinoma, NCI), MES-SA (human uterine carcinoma, NCI) and MES-SA/DX5 (multidrug resistant carcinoma subline of MES-SA, NCI) were used in the test.
(§3) The subcultured cell lines were detached from the surface of wall using by trypsin-EDTA solution and adjusted to various concentration of cell lines, i.e., 5×10^3 cells/well (A-549, HCT15), 1×10^4 cells/well (SK-MEL-2), 5×10^3 cells/well (SK-OV-3) in 96-well flat bottom microplate. The inoculated cell lines were incubated in CO2 incubator (MCO-20AIC, SANYO Electric Co., LTd.) to be attached on the bottom of incubator and the culture media was removed with aspirator. 6 logarithmic concentrations of the diluted test samples were added to each well containing cell line at 100 μl/well in a three fold dilution manner and the cell was incubated for 48 hours. The culture media in each well was removed and 100μ of 10% trichloroacetic acid was added thereto to be left alone at 4° C. for 1 hour and to fix the cells to the bottom of the plates. […] The cell plates were shaked with titer plate shaker (KOMA Orbital Shaker KE011, KOMABIOTech) for 10 mins to exude the staining solution and to determine the absorbance at 520 nm using by microplate spectrophotometer (Sunrise, TECAN).

[2] = system: HCT15 (human colon adenocarcinoma); experiment: SRB cytotoxicity test, HCT15; format: cell-based; conditions: Homo sapiens, HCT-15, 48 h, Table 3, 48 hours; read-out: Cytotoxicity IC50, HCT15
Protocol: as §1, §2, §3

[3] = system: SK-OV-3 (human ovarian tumor); experiment: SRB cytotoxicity test, SK-OV-3; format: cell-based; conditions: Homo sapiens, SK-OV-3; Table 3, 48 hours; read-out: Cytotoxicity IC50, SK-OV-3
Protocol: as §1, §2, §3

HPV16 PVs [4] = experiment: Virus inhibition test (in vitro), SEAP activity of 293TT cells infected with HPV pseudovirion; format: cell-based; conditions: Human papillomavirus 16, read-out: inhibitory activity on HPV16 PVs
[5] = system: SK-MEL-2 (human malignant melanoma); experiment: SRB cytotoxicity test, SK-MEL-2; format: cell-based; conditions: Homo sapiens, SK-MEL-2; Table 3, 48 hours; read-out: Cytotoxicity IC50, SK-MEL-2
Protocol: as §1, §2, §3

[6] = system: A-549 (human adenocarcinoma of lung); experiment: SRB cytotoxicity test, A-549; format: cell-based; conditions: Homo sapiens, A549; Table 3, 48 hours; read-out: Cytotoxicity IC50, A-549
Protocol: as §1, §2, §3

HPV16 PVs [7] = experiment: Virus inhibition test (in vitro), SEAP activity of 293TT cells infected with HPV pseudovirion; format: cell-based; conditions: Human papillomavirus 16, read-out: inhibitory activity from HPV16 PVs
Protocol: Prior to in vitro antiviral assay, 5×10^3 of 293TT cell was seeded on 96-well plate and incubated at 37° C. for 16 hours in 5% CO2 atmosphere. The culture media was removed and each extract was diluted to the concentration of 100 μg/ml or 50 μg/ml to distribute into each cell at the dose of 100 μl/cell. After treating with the extract for 16 hours, the culture media was removed and the cell was washed with PBS twice. The cell was infected by 106RLU/ml of HPV PVs at the dose of 100 μl/cell and incubated for 48 hours at 37° C. in 5% CO2 atmosphere. To determine the viral activity, the supernatant of the cell culture was used for determine the activity of secreted alkaline phosphatase (SEAP) using by Great EscAPE™ SEAP Chemiluminescence Kit (631738, Clontech, CA, USA). To determine the SEAP activity, relative light units (RLU) value was obtained using by Luminescence coulter (Micro beta triLux 1450, PerkinElmer, CT, USA) and the RLU values of the cell treated with the extract and untreated with the extract, were compared with each other. The decrease of SEAP activity was regarded as the inhibition effect against HPV PVs.
To determine the inhibitory effect on luciferase-comprising HPV virus contagion of the test samples prepared in Examples, following test was performed according to the method disclosed in the literature (Shaneyfelt et al., Virology Journal, 3:68, 2006, 1-11; Roden et al., J. Virol., 70, 1996, 5875-5883; Unckell et al., J. Virol., 71, 1997, 2934-2939; Touze et al., Nucleic Acids Research, 26, 1998, 1317-1323; Selinka et al., J. Virol., 77, 2003, 12961-12967; Klasse et al., Journal of General Virology, 83, 2002, 2091-2108)
5×10^3293TT cell was seeded on 96-well plate and incubate for 16 hours. 50 μg of test sample was mixed with the culture media in the concentration of 100 ug/ml and incubated for 16 hours. The media was washed with 100 μl of PBS twice and the cell was infected with 10^6RLU/ml of HPV pseudovirion at the dose of 100 μl/cell to incubate at 37° C., for 48 hours in 5% CO2 atmosphere.
5× lysis buffer in Great EscAPE™ SEAP Chemiluminescence Kit (631738, Clontech, CA, USA) was made to 1× and both of 45 μl of 1× lysis buffer and 15 μl of cell culture medium were added to 96-well plate (3912, Costar, NY, USA). 60 μl of the substrate in Great EscAPE™ SEAP Chemiluminescence kit was added thereto and the relative light units (RLU) value was obtained using by Luminescence coulter (Micro beta triLux 1450, PerkinElmer, CT, USA). The RLU values of the cell treated with the extract and untreated with the extract, were compared with each other and the decrease of SEAP activity was regarded as the inhibition effect against HPV PVs.

[8] = system: MES-SA (human uterine carcinoma); experiment: SRB cytotoxicity test, MES-SA; format: cell-based; conditions: Homo sapiens, MES-SA, 48 h, Table 3, 48 hours; read-out: Cytotoxicity IC50, MES-SA
Protocol: as §1, §2, §3

Which IC50 [1] does the source give for `C=C[C@]1(C)C=C2CC[C@@H]3[C@](C)(CCC[C@@]3(C)C(=O)O)[C@H]2CC1` [compound (j), sandaracopimaric acid] here?
Its IC50 is 11.1 µg/mL (≈ 36.6 µM).

And the IC50 [2]?
Its IC50 is 13.6 µg/mL (≈ 44.9 µM).

What about the IC50 [3] of the same molecule?
Its IC50 is 12.1 µg/mL (≈ 40.1 µM).

And the inhibition at 5 µg/mL (HPV16 PVs [4])?
Its inhibition at 5 µg/mL is roughly 50%.

And the IC50 [5]?
The IC50 was 11.2 µg/mL (≈ 36.9 µM).

What about the IC50 [6] of the same molecule?
The IC50 was 13.6 µg/mL (≈ 45.1 µM).

What about the inhibition at 50 µg/mL (HPV16 PVs [7]) of the same molecule?
Its inhibition at 50 µg/mL is 70 to 80%.

What about the IC50 [8] of the same molecule?
Its IC50 is 10.4 µg/mL (≈ 34.6 µM).
